Experimental data as given in US4309428A, “Maytansinoids” (Takeda Chemical Industries, Ltd., priority 1979, dated 1982).
Values after ≈ are worked out from the molar mass of the structure shown. Like-named read-outs stand apart in the source and are kept apart here.

Experiments:
Tetrahymena pyriformis W = experiment: Antiprotozoal activity, serial dilution method; type: cell-based
Protocol: Antiprotozoal activity of compound (I) was assayed with Tetrahymena pyriformis W as the test organism and a medium composed of 20 g tryptose-peptone (Difco Co.), 1 g yeast extract, 2 g glucose, 1000 ml distilled water, 10 ml 1 M phosphate buffer (pH 7.0) as the assay medium. The microorganism was incubated at 28° C. for 44 to 48 hours and the growth inhibitory activity of compound (I) was assayed by the serial dilution method.

[1] = system: melanoma B-16 tumor cells; experiment: Antitumor activity: life span prolongation in mice with intraperitoneally transplanted melanoma B-16 (NCI protocol); type: in vivo; conditions: intraperitoneally once daily for 9 days
Protocol: Therapeutic tests were carried out in mice according to NCI-protocol 1,300, Cancer Chemother, Reports, Part 3, 1972, Vol. 3, No. 2, in which melanoma B-16 tumor cells had been intraperitoneally transplanted, compound (I) being administered intraperitoneally once daily for 9 consecutive days.

[2] = 28° C., 44 to 48 hours, pH 7.0, read-out: Antiprotozoal activity MIC

Row | SMILES | MIC (Tetrahymena pyriformis W; [2]) | Antitumor activities B-16 (T/C %) ([1]; 50 μg/kg) | Antitumor activities B-16 (T/C %) ([1]; 100 μg/kg) | other results
1 | CCOc1cc2cc(c1Cl)N(C)C(=O)CC(OC(=O)C(C)C)C1(C)OC1C(C)C1CC(O)(NC(=O)O1)C(OC)C=CC=C(C)C2 (centres unmarked) [C20 -ethoxy ether, PDM-3-C20-ethyl ether] | – | – | – | MIC (Tetrahymena pyriformis W; pH 7, read-out: Antiprotozoal activity MIC): ≤ 1 µg/mL
2 | CCOC(=O)COc1cc2cc(c1Cl)N(C)C(=O)CC(OC(=O)C(C)C)C1(C)OC1C(C)C1CC(O)(NC(=O)O1)C(OC)C=CC=C(C)C2 (centres unmarked) [C20 -ethoxycarbonylmethyl ether, PDM-3-C20-ethoxycarbonylmethyl ether] | 1 to 2 µg/mL (≈ 1.41 to 2.83 µM) | – | – | –
3 | CCOCCOCCOc1cc2cc(c1Cl)N(C)C(=O)CC(OC(=O)C(C)C)C1(C)OC1C(C)C1CC(O)(NC(=O)O1)C(OC)C=CC=C(C)C2 (centres unmarked) [C20-2-(2-ethoxyethoxy)ethyl ether, PDM-3-C20-2-(2-ethoxyethoxy)ethyl ether] | 2 µg/mL (≈ 2.71 µM) | – | – | –
4 | COC1C=CC=C(C)Cc2cc(OCc3ccccc3)c(Cl)c(c2)N(C)C(=O)CC(OC(=O)C(C)C)C2(C)OC2C(C)C2CC1(O)NC(=O)O2 (centres unmarked) [PDM-3-C20-benzylether, PDM-3-C20-benzyl ether] | ≤ 1 µg/mL | 220% | 234% | Antitumor activities B-16 (T/C %) ([1]; 25 μg/kg): 182%
5 | CCOC(=O)CC(=O)COc1cc2cc(c1Cl)N(C)C(=O)CC(OC(=O)C(C)C)C1(C)OC1C(C)C1CC(O)(NC(=O)O1)C(OC)C=CC=C(C)C2 (centres unmarked) [C20 -γ-ethoxycarbonylacetonyl ether, PDM-3-C20 -γ-ethoxycarbonylacetonyl ether] | 4 µg/mL (≈ 5.34 µM) | – | – | –
6 | C=CCOc1cc2cc(c1Cl)N(C)C(=O)CC(OC(=O)C(C)C)C1(C)OC1C(C)C1CC(O)(NC(=O)O1)C(OC)C=CC=C(C)C2 (centres unmarked) [C20 -allyl ether, PDM-3-C20-allyl ether] | ≤ 1 µg/mL | – | – | –
7 | CCOC(COc1cc2cc(c1Cl)N(C)C(=O)CC(OC(=O)C(C)C)C1(C)OC1C(C)C1CC(O)(NC(=O)O1)C(OC)C=CC=C(C)C2)OCC (stereo not drawn) [PDM-3-C20-(β,β-diethoxy)ethyl ether, PDM-3-C20 -β,β-diethoxyethyl ether] | – | 211% | 240% | Antitumor activities B-16 (T/C %) ([1]; 25 μg/kg): 194%
8 | COC1C=CC=C(C)Cc2cc(OCC(=O)c3ccccc3)c(Cl)c(c2)N(C)C(=O)CC(OC(=O)C(C)C)C2(C)OC2C(C)C2CC1(O)NC(=O)O2 (centres unmarked) [PDM-3-C20-phenacylether, PDM-3-C20-phenacyl ether] | – | 188% | 176% | Antitumor activities B-16 (T/C %) ([1]; 200 μg/kg): 211%; Antitumor activities B-16 (T/C %) ([1]; 400 μg/kg): 203%
9 | COC1C=CC=C(C)Cc2cc(OCC(=NNC(=O)c3ccncc3)c3ccccc3)c(Cl)c(c2)N(C)C(=O)CC(OC(=O)C(C)C)C2(C)OC2C(C)C2CC1(O)NC(=O)O2 (centres unmarked) [PDM-3-C20-(2-isonicotinoylhydrazono-2-phenyl)ethyl ether] | 2 to 4 µg/mL (≈ 2.33 to 4.66 µM) | – | – | –
